For orientation: CC50 means the concentration giving 50% cytotoxicity. A higher CC50 goes with better tolerance by the cells.

Each structure is given as a SMILES string. Counter-ions that a name gives are not always drawn.

The data set can be described thus: in vitro. Particulars: rat, gh3-tre-luc cells.

On to `CCCCCCCCCC(=O)N(C)C` [N,N-Dimethyldecanamide], for which the CC50 at 24 h (AC50 (uM) modified / 1000) was over 90 µM. In turn, `CCCCCCCCC(=O)OCC(C)OC(=O)CCCCCCCC` (stereo not shown) [Propylene glycol dipelargonate] came in with a CC50 at 24 h (AC50 (uM) modified / 1000) of over 100 µM. For `N=C(N)c1ccc(OCCCOc2ccc(C(=N)N)cc2Br)c(Br)c1` [Dibromopropamidine dihydrochloride], the 50% cytotoxic concentration (CC50) at 24 h (AC50 (uM) modified / 1000) came to 38.5 µM. `CCc1ccc(C=O)cc1` [4-Ethylbenzaldehyde]: the CC50 at 24 h (AC50 (uM) modified / 1000) is over 90 µM. For `CCCC1CCCCN1` (racemic) [dl-Coniine], the CC50 at 24 h (AC50 (uM) modified / 1000, Tox21_110001=Tox21_112688, viability, 1 nM T3 present, 24 h) was over 50 µM.

As to `C=COC(C)=O` [Vinyl acetate], under “AC50 (uM) modified / 1000”, the CC50 at 24 h was over 90 µM. Molecule `CON(C)C(=O)Nc1ccc(Br)c(Cl)c1` [Chlorbromuron] returned a 50% cytotoxic concentration (CC50) at 24 h (AC50 (uM) modified / 1000, Tox21_110001=Tox21_300793, viability, 1 nM T3 present, 24 h) of over 90 µM. For the setting “AC50 (uM) modified / 1000”, `Clc1ccccc1-c1nnc(-c2ccccc2Cl)nn1` [Clofentezine] showed a CC50 at 24 h of over 90 µM. On the same count and under the same terms, as for `CCOC(=O)c1ccccc1C(=O)OCC` [Diethyl phthalate], the figure is over 90 µM. The same measure, in the same setting: for `OC(CCN1CCCC1)(c1ccccc1)C1CCCCC1` (stereo not shown) [Procyclidine hydrochloride] the value was 10.6 µM. In the case of `CSc1ccc(C(=O)c2[nH]c(=O)[nH]c2C)cc1` [Enoximone], the half-maximal cytotoxic concentration (CC50) at 24 h (AC50 (uM) modified / 1000) was over 50 µM.

Where the note is “AC50 (uM) modified / 1000”, `Nc1ccc(O)c([N+](=O)[O-])c1` [4-Amino-2-nitrophenol] returned a half-maximal cytotoxic concentration (CC50) at 24 h of over 90 µM.

`Cc1cc(C(C)(C)C)cc(C)c1CC1=NCCN1` [Xylometazoline hydrochloride]: for the setting “AC50 (uM) modified / 1000”, the CC50 at 24 h is over 20 µM. Still for that read-out and setting: for `C[N+]1(C)[C@@H]2CC[C@H]1CC(OC(=O)c1c[nH]c3ccccc13)C2` (stereo partly shown) [Tropisetron methyliodide] the value was over 50 µM; for `O=CC=C(c1ccccc1)c1ccccc1` [3,3-Diphenylacrylaldehyde], 42.2 µM. With `COP(=S)(OC)Oc1cc(Cl)c(Br)cc1Cl` [Bromofos], under “AC50 (uM) modified / 1000, Tox21_110001=Tox21_301918, viability, 1 nM T3 present, 24 h”, the CC50 at 24 h was over 90 µM. The molecule `C[C@@H]1CN(CCCn2c3ccccc3c3ccccc32)C[C@H](C)N1` [Rimcazole dihydrochloride] came in with a CC50 at 24 h (AC50 (uM) modified / 1000) of 7.99 µM. With `O=C(COP(=O)(O)O)[C@@H](O)[C@H](O)[C@H](O)COP(=O)(O)O` [D-Fructose 1,6-bisphosphate trisodium], the CC50 at 24 h (AC50 (uM) modified / 1000) is over 50 µM. Regarding `O=C1CCCCC1Cl` (stereo not shown) [2-Chlorocyclohexanone], the CC50 at 24 h (AC50 (uM) modified / 1000, Tox21_110001=Tox21_200522, viability, 1 nM T3 present, 24 h) is over 90 µM. Molecule `O=[N+]([O-])c1ccc(F)c(Cl)c1` [2-Chloro-1-fluoro-4-nitrobenzene] gave a CC50 at 24 h (AC50 (uM) modified / 1000) of over 90 µM. For the molecule `C1CS1` [Ethylene sulfide], for the setting “AC50 (uM) modified / 1000, Tox21_110001=Tox21_202917, viability, 1 nM T3 present, 24 h”, the CC50 at 24 h is over 90 µM. For `CCC(C)(NC(=O)c1cc(Cl)c(C)c(Cl)c1)C(=O)CCl` (stereo not shown) [Zoxamide], under “AC50 (uM) modified / 1000”, the cytotoxic concentration (CC50) at 24 h came out at 15 µM. For the setting “AC50 (uM) modified / 1000”, `O=C(O)c1c(Cl)cccc1Cl` [2,6-Dichlorobenzoic acid] showed a CC50 at 24 h of over 90 µM.

With `CC(=O)/C(C)=C/C1C(C)=CCCC1(C)C` (stereo not drawn) [alpha-Isomethylionone], the CC50 at 24 h (AC50 (uM) modified / 1000) is over 90 µM. On the same count and under the same terms, for `CC(=O)C1C(=O)C=C(C)OC1=O` (stereo not shown) [Dehydroacetic acid] the value was over 90 µM; for `O=S(=O)(O)c1ccc2cc(O)ccc2c1` [Potassium 6-hydroxynaphthalene-2-sulfonate], over 90 µM; for `S=C=Nc1cccc2ccccc12` [alpha-Naphylisothiocyanate], over 90 µM.

Consider `NC(=O)C1(N2CCCCC2)CCN(CCCC(=O)c2ccc(F)cc2)CC1` [Pipamperone dihydrochloride], for which the cytotoxic concentration (CC50) at 24 h (AC50 (uM) modified / 1000) was over 50 µM. With `Cc1cc(O)c2c(c1)O[C@@]1(C)CC[C@H]3C(C)(C)CCC[C@]34CO[C@@H]2[C@H]41` [Siccanin], the 50% cytotoxic concentration (CC50) at 24 h (AC50 (uM) modified / 1000) worked out at 15.9 µM. Molecule `CC1=C(C=O)C(C)(C)CCC1` [beta-Cyclocitral] had a half-maximal cytotoxic concentration (CC50) at 24 h (AC50 (uM) modified / 1000) of over 90 µM. Consider `C1CN(CCOCCN2CCOCC2)CCO1` [4,4'-(Oxydiethylene)bis(morpholine)], for which the cytotoxic concentration (CC50) at 24 h (AC50 (uM) modified / 1000) is over 90 µM. Consider `COc1nn(CSP(=S)(OC)OC)c(=O)s1` [Methidathion], for which the cytotoxic concentration (CC50) at 24 h (AC50 (uM) modified / 1000) is over 90 µM. In turn, `OC[C@H]1OC(O)[C@H](O)[C@@H](O)[C@@H]1O` (stereo partly drawn) [D-Glucose] gave a CC50 at 24 h (AC50 (uM) modified / 1000) of over 90 µM. For the molecule `C=C(C)C(=O)OCCC[Si](OC)(OC)OC` [3-(Trimethoxysilyl)propyl methacrylate], the CC50 at 24 h (AC50 (uM) modified / 1000) is over 90 µM. Consider `O=C(O)C(Br)Br` [Dibromoacetic acid], for which the CC50 at 24 h (AC50 (uM) modified / 1000, Tox21_110001=Tox21_202297, viability, 1 nM T3 present, 24 h) is over 90 µM. Regarding `Cc1ccccc1NC(=N)NC(=N)N` [1-(o-Tolyl)biguanide], the CC50 at 24 h (AC50 (uM) modified / 1000) was over 90 µM. Under “AC50 (uM) modified / 1000”, `COc1ccc(CN2CCNCC2)c(OC)c1OC` [Trimetazidine dihydrochloride] displayed a CC50 at 24 h of over 20 µM.

`CC[N+](CC)(CC)CCOc1ccc(/C=C/c2ccccc2)cc1` [Stilonium iodide]: the CC50 at 24 h (AC50 (uM) modified / 1000) is over 50 µM. Turning to `CC(=O)OC1CN2CCC1CC2` (stereo not shown) [Aceclidine], the cytotoxic concentration (CC50) at 24 h (AC50 (uM) modified / 1000) was over 50 µM.

As to `Nc1nc(N)nc(-c2cc(Cl)ccc2Cl)n1` [Irsogladine maleate], where the note is “AC50 (uM) modified / 1000”, the CC50 at 24 h was over 50 µM. The same measure, in the same setting: for `O=C1Nc2ccc(Cl)cc2C(c2ccccc2)=NC1O` (stereo not shown) [Oxazepam] the value was over 80 µM. For `c1ccc(N=NNc2ccccc2)cc1` [Diazoaminobenzene], the CC50 at 24 h is, setting by setting: (AC50 (uM) modified / 1000, Tox21_110001=Tox21_202253, viability, 1 nM T3 present, 24 h) 69 µM; (AC50 (uM) modified / 1000, Tox21_110001=Tox21_303249, viability, 1 nM T3 present, 24 h) 47.9 µM. Where the note is “AC50 (uM) modified / 1000”, `N[C@@H](Cc1c[nH]cn1)C(=O)O` [L-Histidine hydrochloride] yielded a cytotoxic concentration (CC50) at 24 h of over 50 µM.

Molecule `CC(C1CC1)C(O)(Cn1cncn1)c1ccc(Cl)cc1` (stereo not shown) [Cyproconazole] showed a 50% cytotoxic concentration (CC50) at 24 h (AC50 (uM) modified / 1000) of over 90 µM. Turning to `NC(=O)CC[C@H](Nc1ccc([N+](=O)[O-])cc1)C(=O)O` [N2-(4-Nitrophenyl)-L-glutamine hydrochloride], the cytotoxic concentration (CC50) at 24 h (AC50 (uM) modified / 1000) was over 90 µM. For the molecule `CCN(CC)Cc1cc(Nc2ccnc3cc(Cl)ccc23)ccc1O` [Amodiaquin dihydrochloride dihydrate], it took 13.5 µM to reach half-maximal cytotoxicity (AC50 (uM) modified / 1000) (CC50 at 24 h). Regarding `C[C@H](CSC(=O)c1ccccc1)C(=O)N1C[C@@H](Sc2ccccc2)C[C@H]1C(=O)O` [Zofenopril], the CC50 at 24 h (AC50 (uM) modified / 1000) was over 50 µM. As for `O=[N+]([O-])c1cccc(S(=O)(=O)O)c1` [Sodium 3-nitrobenzenesulfonate], for the setting “AC50 (uM) modified / 1000”, the half-maximal cytotoxic concentration (CC50) at 24 h is over 90 µM.

Take `Cc1ccc([N+](=O)[O-])cc1Cl` [2-Chloro-1-methyl-4-nitrobenzene]: the CC50 at 24 h (AC50 (uM) modified / 1000) was over 90 µM. Turning to `CCOC(=O)[C@H](CS)NCCN[C@@H](CS)C(=O)OCC` [Bicisate dihydrochloride], the 50% cytotoxic concentration (CC50) at 24 h (AC50 (uM) modified / 1000) is over 50 µM. Still for that read-out and setting: as for `CCCCC(CC)C(=O)OCCOCCOCCOCCOC(=O)C(CC)CCCC` (stereo not shown) [Tetraethylene glycol di(2-ethylhexanoate)], the figure is over 90 µM; as for `OCCCc1ccccc1` [3-Phenyl-1-propanol], over 50 µM; as for `C=N[C@@H](C(=O)N[C@@H]1C(=O)N2[C@@H]1SC(C)(C)[C@@H]2C(=O)O)c1ccccc1` [Metampicillin sodium], over 50 µM.

Consider `CNC(C)CCC=C(C)C` (stereo not shown) [Isometheptene hydrochloride], for which the CC50 at 24 h (AC50 (uM) modified / 1000) is over 50 µM. Regarding `CC(N)Cc1ccc2c(c1)OCO2` (stereo not shown) [Tenamfetamine hydrochloride], the cytotoxic concentration (CC50) at 24 h (AC50 (uM) modified / 1000, Tox21_110001=Tox21_113529, viability, 1 nM T3 present, 24 h) was over 50 µM.

`CC(=O)Nc1ccc(OCC(O)CNC(C)C)cc1` (stereo not shown) [Practolol] showed a CC50 at 24 h (AC50 (uM) modified / 1000) of over 50 µM.

`CC(C)(Oc1ccc(C2CCCc3ccccc32)cc1)C(=O)O` (stereo not shown) [Nafenopin] came in with a CC50 at 24 h (AC50 (uM) modified / 1000) of over 50 µM. The same measure, in the same setting: for `CC(C)(C)C(=O)C(Oc1ccc(Cl)cc1)n1ccnc1` (stereo not shown) [Climbazole] the value was over 50 µM; for `CCOC(=O)c1ccc(N(C)C)cc1` [Parbenate], over 90 µM; for `NCCCNCCCN` [Norspermidine], 57.5 µM.
